In the NIST ThermoML archive (doi:10.1016/j.jct.2018.02.019):

Test: mn = molality of the nth substance listed, in mol/kg
Settings: 298.15 K, Ring tensiometer

C[C@H](CCC(=O)NCCS(=O)(=O)[O-])[C@H]1CC[C@H]2[C@@H]3[C@H](O)C[C@@H]4C[C@H](O)CC[C@]4(C)[C@H]3C[C@H](O)[C@]12C.[Na+] [sodium taurocholate] + O
Settings | surface tension liquid-gas [mN/m]
m1 = 0.00062 | 53.39
m1 = 0.00093 | 50.95
m1 = 0.00149 | 47.64
m1 = 0.00208 | 45.58
m1 = 0.00263 | 44.18
m1 = 0.00313 | 43
m1 = 0.00354 | 42.08
m1 = 0.00392 | 41.48
m1 = 0.00455 | 40.95
m1 = 0.00489 | 40.5
m1 = 0.00556 | 40.48
m1 = 0.0062 | 40.51
m1 = 0.00714 | 40.45
m1 = 0.00804 | 40.5
